# According to US20030143282A1, “Adenosine A3 receptor agonist” (priority 2002, published 2003):
# Experiments:
# [1] = Myeloprotective effect in mice treated with cyclophosphamide; format: in vivo; settings: adenosine administered orally or intraperitoneally, after cyclophosphamide
# Experimental: The myeloprotective effect of the various preparations were examined by injecting mice intraperitoneally with 50 mg/kg body weight of cyclophosphamide. Each group contained 10 mice and experiments were repeated at least 4 times. Adenosine, MCM (4 activity units) or MCM+ADA (4 activity units) were each orally administered 48 h and 72 h following the chemotherapy. After 120 h blood samples were withdrawn. The number of leukocytes and percent of neutrophils were evaluated.
# B16-F10 melanoma cells = assay: Melanoma lung metastatic foci growth in mice inoculated with B16-F10 cells; format: in vivo, C57BL/6J mice; settings: adenosine 268 μg/kg body weight, administered orally or intraperitoneally
# Experimental: The B-16-F10 murine melanoma cell line was used in the in vitro and in vivo experiments. Cells were maintained in RPMI medium containing 10% FBS, penicillin and streptomycin. They were transferred twice weekly to a freshly prepared medium. To examine the effect of the different preparations on tumor cell growth, B16-F10 (2.5×10^5) melanoma cells were intravenously inoculated to C57BL/6J mice. Each group contained 20 mice and experiments were repeated at least 4 times. Mice were treated orally according to the following protocol starting one day after tumor inoculation: 1. Adenosine—268 μg/kg body weight 2. MCM 4AU twice daily. 3. MCM+ADA, 4AU twice daily. 4. Vehicle—twice daily. An additional group of mice was treated daily intraperitoneally with adenosine (268 μg/kg body weight). Mice were sacrificed after fifteen days, lungs removed and black metastatic foci were counted using a Dissecting Microscope.
# bone marrow cells = assay: [3H]-thymidine incorporation assay, bone marrow cell proliferation; format: cell-based, C57BL/6J mice; settings: 0.1, 0.05 and 0.001 μM
# Experimental: Bone marrow cells were obtained from the femur of C57BL/6J mice. Cells were disaggregated by passing through a 25 G needle.
# (§1) [^3H]-tymidine incorporation assay was used to evaluate cell growth. 1.5×10^4/ml B-16-F10 melanoma or 3×10^5/ml bone marrow cells were cultured in RPMI medium containing 10% FBS in 96 well microtiter plates. These cultures were incubated in the presence of MCM in a concentration of 50%. Since MCM was prepared in PBS, cultures containing tumor or bone marrow cells suspended in 50% PBS served as controls. During the last 18 hours of incubation, each well was pulsed with 1 μCi [^3H]-thymnidine. The cells were harvested and the [^3H]-thymnidine uptake was determined in an LKB liquid scintillation counter (LKB, Piscataway, N.J., USA).
# (§2) Results were expressed as % of cell proliferation inhibition or stimulation, calculated according to the following formula: [formula]
# where A represents the cell count of sample and B represents the cell count of the control. According to this calculation control values are 0% of inhibition or stimulation.
# To eliminate adenosine from MCM preparations, adenosine deaminase (ADA) (Sigma, Chemical Co. St. Louis, Mo., USA) was added to the MCM for 1 hour. […]
# (§3) In this set of experiments, the question whether the effect of MCM+ADA on tumor or normal cells was mediated through A3AR was examined. […] [^3H]-thymidine uptake was determined as described above.
# B-16-F10 melanoma cells = assay: [3H]-thymidine incorporation assay, tumor cell proliferation; format: cell-based, murine; settings: B16-F10 cells; 0.1, 0.05 and 0.001 μM
# Experimental: The B-16-F10 murine melanoma cell line was used in the in vitro and in vivo experiments. Cells were maintained in RPMI medium containing 10% FBS, penicillin and streptomycin. They were transferred twice weekly to a freshly prepared medium.
# as §1, §2
# where A represents the cell count of sample and B represents the cell count of the control. According to this calculation control values are 0% of inhibition or stimulation. […]
# as §3
Structure (SMILES),chemoprotective effect [1],inhibition of tumor growth (B16-F10 melanoma cells),effect of MRS-1220 by itself on proliferation (bone marrow cells),effect of MRS-1220 by itself on proliferation (B-16-F10 melanoma cells)
"Nc1ncnc2c1ncn2[C@@H]1O[C@H](CO)[C@@H](O)[C@H]1O [Adenosine, adenosine]",failed to inhibit tumor growth or act as a chemoprotective agent,failed to inhibit tumor growth,–,–
"O=C(Cc1ccccc1)Nc1nc2ccc(Cl)cc2c2nc(-c3ccco3)nn12 [MRS-1220, 9-chloro-2-(2-furanyl)-5-[(phenylacetyl)amino] [1,2,4,]-triazolo[1,5-c] quinazoline]",–,–,no effect,no effect
